{"source": "the NIST ThermoML archive (doi:10.1016/j.fluid.2006.08.020)", "key": {"[1]": {"settings": "298.1 K; 101.33 kPa; Liquid; Vibrating tube method"}, "[2]": {"experiment": "osmotic coefficient (dimensionless); mn = molality of the nth substance listed, in mol/kg", "settings": "298.15 K, Liquid, isopiestic method"}}, "note": "Numbers after ± are expanded uncertainties.", "data": [{"smiles": "CO", "note": "[methanol]", "values": [{"measurement": "mass density", "setting": "[1]", "result": "787.5 ± 0.16", "unit": "kg/m3"}]}, {"smiles": "CO", "note": "[methanol] + CC(=O)Nc1ccc(O)cc1", "values": [{"measurement": "osmotic coefficient", "setting": "[2]; m1 = 0.0931", "result": "0.998 ± 0.001"}, {"measurement": "osmotic coefficient", "setting": "[2]; m1 = 0.1398", "result": "1.001 ± 0.001"}, {"measurement": "osmotic coefficient", "setting": "[2]; m1 = 0.2163", "result": "1.001 ± 0.001"}, {"measurement": "osmotic coefficient", "setting": "[2]; m1 = 0.3514", "result": "1 ± 0.001"}, {"measurement": "osmotic coefficient", "setting": "[2]; m1 = 0.5633", "result": "1.002 ± 0.001"}, {"measurement": "osmotic coefficient", "setting": "[2]; m1 = 1.006", "result": "1.009 ± 0.001"}, {"measurement": "osmotic coefficient", "setting": "[2]; m1 = 1.236", "result": "1.01 ± 0.001"}, {"measurement": "osmotic coefficient", "setting": "[2]; m1 = 1.4", "result": "1.015 ± 0.001"}, {"measurement": "osmotic coefficient", "setting": "[2]; m1 = 1.578", "result": "1.017 ± 0.001"}, {"measurement": "osmotic coefficient", "setting": "[2]; m1 = 1.866", "result": "1.02 ± 0.001"}, {"measurement": "osmotic coefficient", "setting": "[2]; m1 = 2.465", "result": "1.027 ± 0.002"}, {"measurement": "osmotic coefficient", "setting": "[2]; m1 = 2.762", "result": "1.033 ± 0.002"}, {"measurement": "osmotic coefficient", "setting": "[2]; m1 = 3.096", "result": "1.041 ± 0.003"}, {"measurement": "osmotic coefficient", "setting": "[2]; m1 = 3.56", "result": "1.055 ± 0.004"}, {"measurement": "osmotic coefficient", "setting": "[2]; m1 = 3.974", "result": "1.068 ± 0.004"}, {"measurement": "osmotic coefficient", "setting": "[2]; m1 = 4.175", "result": "1.075 ± 0.005"}, {"measurement": "osmotic coefficient", "setting": "[2]; m1 = 4.812", "result": "1.099 ± 0.006"}, {"measurement": "osmotic coefficient", "setting": "[2]; m1 = 5.316", "result": "1.12 ± 0.008"}, {"measurement": "osmotic coefficient", "setting": "[2]; m1 = 6.17", "result": "1.159 ± 0.01"}, {"measurement": "osmotic coefficient", "setting": "[2]; m1 = 6.418", "result": "1.171 ± 0.011"}, {"measurement": "osmotic coefficient", "setting": "[2]; m1 = 6.833", "result": "1.19 ± 0.012"}, {"measurement": "osmotic coefficient", "setting": "[2]; m1 = 7.073", "result": "1.21 ± 0.013"}]}]}
